This is an account of results in article PMC11796312, “Multifunctional, Fluorene‐Based Modulator of Cholinergic and GABAergic Neurotransmission as a Novel Drug Candidate for Palliative Treatment of Alzheimer's Disease” (Angewandte Chemie (International Ed. in English), 2024).

Test [1] deals with mice treated with scopolamine. The test is described as follows: Barnes maze (BM) task. The format is in vivo, C57BL/6J mice. How it is done:
(§1) Animals and housing conditions
(§2) In all pharmacodynamic in vivo experiments, except for the Barnes maze (BM) task, adult male Albino Swiss (CD-1) mice weighing between 18 and 22 g and purchased from the Animal Breeding Farm of the Faculty of Pharmacy, Jagiellonian University Medical College were used. In BM task, C57BL/6J mice of the same weight (Animalab, Poland) were used.
Animals were housed in cages (10 mice per cage) at a constant temperature of 22 ± 2 °C, humidity of 55 ± 10%, and a light/dark (12:12) cycle (lights on at 7 AM). Before the experiments, the animals had unlimited access to food and water. Specified conditions for the maintenance of mice were ensured throughout the experiments, including tree bedding (Transwior, Poland) and cage enrichment (tunnels, nesting material, wooden igloos, etc.). For the behavioral test, the mice were selected randomly; each group consisted of 7-12 mice. The experiments were performed between 9 AM and 3 PM. After in vivo tests, the animals were […]
Ethical approval statement
The procedures for the maintenance and treatment of laboratory animals were approved by the 1st Local Ethics Committee of the Jagiellonian University in Krakow (Approvals No.
524/2021, 618/2022), and the treatment of animals was in full accordance with ethical […]
Drugs and dose selection for the in vivo tests
For in vivo assays 6 was suspended in 1% Tween 80 (Sigma Aldrich, Poland) and administered intraperitoneally (i.p.) 60 min before the acquisition trial of the passive avoidance (PA) task, BM task and 60 min before the forced swim test (FST), four-plate test (FPT) and elevated plus maze (EPM) test. Doses 10 mg/kg and 30 mg/kg were the starting […]
doses for behavioral assays. Lower doses were also assessed if at least one of them was […]
Scopolamine hydrobromide used at the dose of 1 mg/kg for the induction of learning and memory deficits was supplied by Sigma Aldrich (Poland). The dose of scopolamine was chosen based on our previous studies[44,45] and available literature data.[46] […]
Effect on spatial learning and memory – Barnes maze task
Spatial learning and memory in mice were also assessed using the BM task.[47] This task was performed with the BM apparatus (Panlab-Harvard Apparatus, Spain). It consists of a circular, dry, open platform surface equipped with 18 holes around the perimeter of the platform and a small dark recessed chamber located under one of them. Visual extra-maze cues (pictures of colored geometric figures with contrasting backgrounds placed at a distance of 1 m from the platform) were provided to facilitate learning. A weak aversive stimulus (light 600 lx) was applied to increase the animals’ motivation to escape from the circular platform.
The spatial acquisition trial was performed during the first 4 days of the experiment. On the first day of the test, an additional adaptation period preceded a proper trial. In this phase, mice were individually placed in a cylindrical black start chamber in the middle of the circular maze. Ten seconds later, the mouse was released from the start chamber, the light was turned on, and the animal was gently guided to the escape box (a small dark recessed chamber under the BM platform), where it remained for the next 2 min. This phase was not preceded by drug […]
In the spatial acquisition phase, each mouse was subjected to four trials daily, keeping 15-min intervals between each trial. […]

A further test relates to mice. The test is described as follows: Four-plate test (FPT). The format is in vivo. The conditions noted are these: 0.1, 1 and 10 mg/kg i.p., vs control. How it is done:
as §1, §2
Animals were housed in cages (10 mice per cage) at a constant temperature of 22 ± 2 °C, humidity of 55 ± 10%, and a light/dark (12:12) cycle (lights on at 7 AM). Before the experiments, the animals had unlimited access to food and water. […]
Briefly, mice were individually placed in a glass cylinder (25 cm high, 10 cm in diameter) containing 11 cm of water maintained at 23–25 °C and were left therein for 6 min. […] The total duration of immobility was measured during the final 4 min of a 6-min test session. […]
The four-plate apparatus (FPT; Bioseb, France) consists of a cage (25 × 18 × 16 cm) that is floored with four rectangular metal plates (11 × 8 cm). […] The number of punished crossings was counted […]
of the closed arms. […] The following parameters were measured in this test: time spent in open arms of the EPM device and the number of entries to open arms. […]

Setting [2] is: 10 mg/kg i.p. + scopolamine, vs scopolamine control.
The mark [3] stands for this setting: 10 mg/kg, retention trial, vs scopolamine control.

“Also recorded” adds a separate entry of the source.

Turning to `O[C@H](CNCC1CC1)[C@H](Cc1ccccc1)NC1c2ccccc2-c2ccccc21` [Compound 6], in test [1] (setting [2]), the “latency to target, acquisition trial” value is “Statistically significant differences were also observed on day 4; also recorded: statistically significantly reduced latency to target” and the “number of errors, acquisition phase (days 1-4)” value is “no statistically significant differences in the number of errors”. The “number of errors, day 5” value in test [1] (10 mg/kg, drug-off trial) was “no significant differences among groups”. Moreover, in test [1] (setting [3]), the “latency to former target location, day 12” value was “A similar effect was noted; also recorded: significantly shortened the latency to former target location” and the “number of errors, day 12” value is listed as “significantly reduced number of errors made; also recorded: reduced the number of errors”. Also, in the test with mice, the “number of punished crossings” value is “increased the number of punished crossings; also recorded: statistically significant increase in the number of punished crossings”.
